Here are results for three compounds from ChEMBL document CHEMBL1136436, “A new model of the tautomycin-PP1 complex that is not analogous to the corresponding okadaic acid structure” (Bioorg Med Chem Lett, 2003).

Structures are written as SMILES.

Test [1] can be described thus: Inhibition of protein phosphatase 1 (PP1) was determined by standard phosphorylase inhibition assay. The arrangement: species or system Oryctolagus cuniculus.
A short description of test [2]: Inhibition of protein phosphatase 2A (PP2A) was determined by standard phosphorylase inhibition assay. The arrangement: species or system Oryctolagus cuniculus.

The IC50 is the concentration that inhibits the measured activity by half. A higher IC50 goes with lower potency. Consider `CC[C@@H](C)CC[C@H](O)[C@H](C)C(=O)C[C@@H](O)[C@H](OC)[C@H](OC(=O)C[C@@H](O)C1=C(C)C(=O)OC1=O)C(C)C`, for which the IC50 came out at 130 µM in test [1] and 100 µM in test [2].
The corresponding values for `CO[C@@H](CO)[C@H](OC(=O)C[C@@H](O)C1=C(C)C(=O)OC1=O)C(C)C` are 4.8 µM and 3.3 µM.
With `CO[C@H]([C@H](O)CC(=O)[C@@H](C)[C@@H](O)CC[C@@H](C)[C@@H]1O[C@]2(CC[C@@H](C)[C@H](CC[C@H](C)C(C)=O)O2)CC[C@@H]1C)[C@H](OC(=O)C[C@@H](O)C1=C(C)C(=O)OC1=O)C(C)C` [TAUTOMYCIN], the IC50 in test [1] was found to be 0.19 µM; in test [2], 0.9 µM.
